# Bridge positions count the residues as written; N and C are the ends. Square brackets hold non-standard residues; d marks the D form. Peptide text beside a SMILES is read from it. * marks the point of attachment. Bip = N[C@@H](Cc1ccc(-c2ccccc2)cc1)C(=O)O; Phe(3-CN) = N#Cc1cccc(C[C@H](N)C(=O)O)c1; Phe(3-OMe) = COc1cccc(C[C@H](N)C(=O)O)c1; Phe(3-Me) = Cc1cccc(C[C@H](N)C(=O)O)c1; Cha = N[C@@H](CC1CCCCC1)C(=O)O; Carboxymethyl = O=C(O)C*; NMeA = CN[C@@H](C)C(=O)O; Orn = NCCC[C@H](N)C(=O)O; Dab = NCC[C@H](N)C(=O)O; Dap = NC[C@H](N)C(=O)O
# Target: T1, PE-labeled human PD-L1-Ig binding to Jurkat cell line over-expressing human PD-1 (Jurkat-PD-1) (Homo sapiens, UniProt Q15116)
# T1 construct: expressed in transfected cells; host or cells: Jurkat
# T1 sequence (Q15116 25-288): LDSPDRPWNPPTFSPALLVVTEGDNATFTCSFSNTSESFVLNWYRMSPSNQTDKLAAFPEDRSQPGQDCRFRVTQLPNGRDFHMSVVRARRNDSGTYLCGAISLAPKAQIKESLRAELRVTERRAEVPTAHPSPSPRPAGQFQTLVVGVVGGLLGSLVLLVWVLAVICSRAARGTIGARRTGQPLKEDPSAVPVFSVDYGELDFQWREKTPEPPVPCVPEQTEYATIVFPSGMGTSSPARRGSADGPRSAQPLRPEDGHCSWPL
# Assay: Jurkat-PD-1 Cell Binding High-Content Screening Assay (CBA): Method 1
# Conditions: Jurkat-hPD-1 cells, PE-labeled PD-L1-Ig 20 nM final; read-out: Jurkat HPDL1 PD1 IC50 (uM) (Method 1)
row,Compound,IC50
1,CC(C)C[C@H]1NC(=O)[C@H](C)N(C)C(=O)[C@H](CCCNC(=N)N)NC(=O)[C@H](Cc2ccc(-c3ccccc3)cc2)NC(=O)[C@H](C(C)C)NC(=O)[C@H](Cc2c[nH]c3ccccc23)NC(=O)[C@H](CC(=O)O)NC(=O)[C@H](Cc2ccc(O)cc2)NC(=O)[C@H](CC(N)=O)NC(=O)CSC[C@@H](C(=O)N[C@@H](C)C(N)=O)NC(=O)[C@H]([C@@H](C)O)NC(=O)[C@H](C(C)C)NC(=O)[C@H](CC2CCCCC2)NC(=O)[C@H](CCN)NC1=O [Compound 1284] ({CH2CO}-NYDWV[Bip]R[NMeA][dL][Dab][Cha]VTCA-NH2; thioether N-14),0.01 µM
2,COc1cccc(C[C@@H]2NC(=O)[C@H](CN)NC(=O)CSC[C@@H](C(=O)N[C@@H](C)C(N)=O)NC(=O)[C@H]([C@@H](C)O)NC(=O)[C@H](C(C)C)NC(=O)[C@H](CC(C)C)NC(=O)[C@H](CCN)NC(=O)[C@@H](CC(C)C)NC(=O)[C@H](C)N(C)C(=O)[C@H](CCCNC(=N)N)NC(=O)[C@H](Cc3ccc(-c4ccccc4)cc3)NC(=O)[C@H](C(C)C)NC(=O)[C@H](Cc3c[nH]c4ccccc34)NC(=O)[C@H](CC(=O)O)NC2=O)c1 [Compound 1453] ({CH2CO}-[Dap][Phe(3-OMe)]DWV[Bip]R[NMeA][dL][Dab]LVTCA-NH2; thioether N-14),0.08 µM
3,CC[C@@H](C)[C@H]1NC(=O)[C@H](C)N(C)C(=O)[C@H](CCCNC(=N)N)NC(=O)[C@H](Cc2ccc(-c3ccccc3)cc2)NC(=O)[C@H](C(C)C)NC(=O)[C@H](Cc2c[nH]c3ccccc23)NC(=O)[C@H](CC(=O)O)NC(=O)[C@H](Cc2ccc(O)cc2)NC(=O)[C@H](Cc2ccccc2)NC(=O)CSC[C@@H](C(=O)N[C@@H](C)C(N)=O)NC(=O)[C@H]([C@@H](C)O)NC(=O)[C@H](C(C)C)NC(=O)[C@H](CC(C)C)NC(=O)[C@H](CCCNC(=N)N)NC1=O [Compound 1066] ({CH2CO}-FYDWV[Bip]R[NMeA][dI]RLVTCA-NH2; thioether N-14),0.79 µM
4,CC(C)C[C@@H]1NC(=O)[C@H](CCN)NC(=O)[C@@H](CC(C)C)NC(=O)[C@H](C)N(C)C(=O)[C@H](Cc2cnc[nH]2)NC(=O)[C@H](Cc2ccc(-c3ccccc3)cc2)NC(=O)[C@H](C(C)C)NC(=O)[C@H](Cc2c[nH]c3ccccc23)NC(=O)[C@H](CC(=O)O)NC(=O)[C@H](Cc2cccc(C#N)c2)NC(=O)[C@H](CC(N)=O)NC(=O)CSC[C@@H](C(=O)N[C@@H](C)C(N)=O)NC(=O)[C@H]([C@@H](C)O)NC(=O)[C@H](C(C)C)NC1=O [Compound 1375] ({CH2CO}-N[Phe(3-CN)]DWV[Bip]H[NMeA][dL][Dab]LVTCA-NH2; thioether N-14),0.05 µM

# Continued, values first:
row,IC50,Compound
1,0.28 µM,Cc1cccc(C[C@@H]2NC(=O)[C@H](CC(=O)O)NC(=O)[C@H](Cc3ccc(OCC(=O)O)cc3)NC(=O)[C@H](CN)NC(=O)CSC[C@@H](C(=O)N[C@@H](CCN)C(N)=O)NC(=O)[C@H](CCCN)NC(=O)[C@H](C(C)C)NC(=O)[C@H](CC(C)C)NC(=O)[C@H](CCN)NC(=O)[C@@H](C)NC(=O)[C@H](C)N(C)C(=O)[C@H](Cc3ccc(O)cc3)NC(=O)[C@H](Cc3ccc(-c4ccccc4)cc3)NC(=O)[C@H](Cc3ccc(O)cc3)NC2=O)c1 [Compound 1874] ({CH2CO}-[Dap]Y(Carboxymethyl)D[Phe(3-Me)]Y[Bip]Y[NMeA][dA][Dab]LV[Orn]C[Dab]-NH2; thioether N-14)
2,0.03 µM,Cc1cccc(C[C@@H]2NC(=O)[C@H](CC(=O)O)NC(=O)[C@H](Cc3ccc(OCC(=O)O)cc3)NC(=O)[C@H](Cc3ccc(OCC(=O)O)cc3)NC(=O)CSC[C@@H](C(N)=O)NC(=O)[C@H](CC(N)=O)NC(=O)[C@H](C(C)C)NC(=O)[C@H](CC3CCCCC3)NC(=O)[C@H](CCN)NC(=O)[C@@H](CC(C)C)NC(=O)[C@H](C)N(C)C(=O)[C@H](Cc3ccc(OCC(=O)O)cc3)NC(=O)[C@H](Cc3ccc(-c4ccccc4)cc3)NC(=O)[C@H](Cc3ccc(OCC(=O)O)cc3)NC2=O)c1 [Compound 1653] ({CH2CO}-Y(Carboxymethyl)Y(Carboxymethyl)D[Phe(3-Me)]Y(Carboxymethyl)[Bip]Y(Carboxymethyl)[NMeA][dL][Dab][Cha]VNC-NH2; thioether N-14)

# Source: patent publication US20240409585A1, “MACROCYCLIC IMMUNOMODULATORS” (priority 2021, published 2024)
